± gives the expanded uncertainty stated by the source.
How the values were obtained:
[1] = Liquid
[2] = xn = mol fraction of the nth substance listed; settings: Liquid, x1 = 1

Row | Structure (SMILES) | mass density ([1]; 293.15 K) | viscosity ([1]; 293.15 K) | mass density ([1]; 298.15 K) | viscosity ([1]; 298.15 K) | mass density ([2]; 293.15 K) | viscosity ([2]; 293.15 K) | mass density ([2]; 298.15 K) | viscosity ([2]; 298.15 K)
1 | CCCCCCCCCC [decane] | 731 ± 2.4 kg/m3 | 0.9133 ± 0.028 mPa·s | 727.2 ± 2.4 kg/m3 | 0.8509 ± 0.027 mPa·s | – | – | – | –
2 | CCCCCC [hexane] | 659.8 ± 2.8 kg/m3 | 0.2979 ± 0.038 mPa·s | 655.3 ± 2.8 kg/m3 | 0.2865 ± 0.038 mPa·s | – | – | – | –
3 | CCCCCCCC [octane] | 705.6 ± 9.5 kg/m3 | 0.5374 ± 0.023 mPa·s | 701.6 ± 9.6 kg/m3 | 0.5087 ± 0.022 mPa·s | – | – | – | –

The remaining lines, values ahead:

Row | mass density ([1]; 293.15 K) | viscosity ([1]; 293.15 K) | mass density ([1]; 298.15 K) | viscosity ([1]; 298.15 K) | mass density ([2]; 293.15 K) | viscosity ([2]; 293.15 K) | mass density ([2]; 298.15 K) | viscosity ([2]; 298.15 K) | Structure (SMILES)
4 | 790.2 ± 2.2 kg/m3 | 1.21 ± 0.062 mPa·s | 785.9 ± 2.2 kg/m3 | 1.099 ± 0.059 mPa·s | – | – | – | – | CCO [ethanol]
5 | – | – | – | – | 790.2 ± 2.2 kg/m3 | 1.21 ± 0.062 mPa·s | 785.9 ± 2.2 kg/m3 | 1.099 ± 0.059 mPa·s | CCO [ethanol] + CCCCCC
6 | – | – | – | – | 790.2 ± 7.5 kg/m3 | – | 785.9 ± 7.6 kg/m3 | – | CCO [ethanol] + CCCCCCCC
